Source: ChEMBL document CHEMBL1134989, “Synthesis and stability study of a modified phenylpropionic acid linker-based esterase-sensitive prodrug” (Bioorg Med Chem Lett, 2002)

Legend:
[1] = Half-life in human plasma; assay type: ADME, cell-free
[2] = Half-life of the parent prodrug in plasma; assay type: ADME, cell-free; settings: human
[3] = Half-life of the parent prodrug in porcine esterase solution; assay type: ADME, Sus scrofa; settings: pig

half-life [1]	T1/2 [2]	T1/2 [3]	SMILES
52 min			COc1ccc(NC(=O)CC(C)(C)c2c(OC)cc(OC)cc2OC(C)=O)cc1
	53.7 min	11.9 min	COc1ccc(NC(=O)CC(C)(C)c2c(C)cc(C)cc2OC(C)=O)cc1
